First: NC(=O)C1CCN(C(=O)CNC(=O)OCc2ccccc2)CC1
Second: CCCN1CCC(c2ccccc2)=C(C(=O)NCC)C1
The melting point of the first is higher: 146 to 149 °C for the first, 80 to 83 °C for the second.

Compared with `CCc1c(C(=O)O)c(CC(=O)O)n(C)c1C(=O)c1ccc(Cl)cc1`, `CC(C)c1ccc(NC(=O)c2ccc(C(=O)O)cn2)cc1C(C)C` is lower in melting point: 211 to 212 °C for the first, 188 to 190 °C for the second.

First: COCCN1CCN(c2ccc(NC(=O)c3cnn(-c4ccc(Cl)cc4)c3C)cc2C#N)CC1
Second: CS(=O)(=O)Nc1ccccc1C(=O)Nc1ccc(OCCN2CCCC2)cc1
The melting point of the first is lower: 207 °C for the first, 221 to 222 °C for the second.

Compared with `COc1c([N+](=O)[O-])c([N+](=O)[O-])c(OC)c2[nH]c(C(F)(F)F)nc12`, `COc1ccc(C=C[N+](=O)[O-])c(Cl)c1OC` is lower in melting point: 208 to 210 °C for the first, 88 to 91 °C for the second.

First: O=C(NC1CCCC1)NS(=O)(=O)c1cccc(Cl)c1Cl
Second: CS(=O)(=O)Nc1cccc(NC(=O)C(=O)N2CCC(Cc3ccc(F)cc3)CC2)c1
The melting point of the first is higher: 202 to 207 °C for the first, 102 to 106 °C for the second.

First: CCCC(=O)C(=C1NCCCS1)[N+](=O)[O-]
Second: CCCCC(=O)C(C)(C)N1COC(C)=C(c2ccccc2)C1=O
The melting point of the first is lower: 54 to 58.5 °C for the first, 157 to 158 °C for the second.

First: Cn1c(C(F)(F)F)ccc(-c2cc(NS(C)(=O)=O)c(Cl)cc2F)c1=O
Second: CC(=O)Nc1c(C(=O)c2ccccc2)[nH]c2ccc(NS(C)(=O)=O)cc12
The melting point of the first is lower: 113 to 114 °C for the first, 260 to 261 °C for the second.

Compared with `COC(=O)C1=CCC(=C2CCc3nc4c(nc3C2=O)C(C)(C)CCC4(C)C)C=C1`, `CC(=O)OC1CCC2(C)C(=CCC3C2CCC2(C)C(n4nccn4)=C(C=O)CC32)C1` (stereo unspecified) is lower in melting point: 149 to 151 °C for the first, 145 to 148 °C for the second.

First: CC(C)NCCC(C(N)=O)c1ccccc1-c1ccccc1 (stereo unspecified)
Second: CN(C)CCC(Cc1ccccc1C(=O)O)c1ccccc1 (stereo unspecified)
The melting point of the first is lower: 92 to 95 °C for the first, 152 to 154 °C for the second.

First: Cc1ccc(OCc2ccccc2)c2cnn(Cc3ccccc3)c12
Second: O=C(O)Cc1cn(-c2ccccc2)c2ccccc12
The melting point of the first is lower: 92 to 93 °C for the first, 131 to 135 °C for the second.

Compared with `Cc1ccc(Oc2ccc([N+](=O)[O-])cc2)c(O)c1`, `CC1Cc2ccc(Br)cc2C(c2ccc([N+](=O)[O-])cc2)=NN1` (stereo unspecified) is higher in melting point: 95 to 97 °C for the first, 125 to 130 °C for the second.

First: COC(=O)c1cc(C)cc(NC(=O)c2nnn[nH]2)c1O
Second: COC(=O)c1sc(C(=O)OC)c(OC)c1N
The melting point of the first is higher: 238 to 240 °C for the first, 120 to 124 °C for the second.

First: CC(C)(C)NC(=O)N1CCN(Cc2ccccc2)C[C@@H]1C(=O)N(CCCn1ccnc1)Cc1ccccc1
Second: CCC(=Cc1cccnc1)C(=O)NCCCCN1CCN(C(c2ccccc2)c2ccccc2)CC1
The melting point of the first is lower: 57.8 °C for the first, 137 to 141 °C for the second.

First: Oc1cccc2c1CCC(c1ccccn1)O2 (stereo unspecified)
Second: OC1(c2nccc3ccccc23)CCNCC1
The melting point of the first is higher: 246 to 248 °C for the first, 138 to 140 °C for the second.

Compared with `CCCOc1nc(N)nc2nc[nH]c12`, `CCOC(=O)COc1cccc(-n2nc(-c3ccc(F)cc3)c3cccnc32)c1` is lower in melting point: 198 to 200 °C for the first, 130 to 131 °C for the second.

Compared with `FC(F)(F)c1cc(Cl)c(-n2cc(C#CBr)c(C(F)(F)F)n2)c(Cl)c1`, `Cc1cc(C#N)cc(C(=O)Nc2ccc(F)c(Cl)c2)n1` is higher in melting point: 92 to 94 °C for the first, 204 °C for the second.

First: Oc1ccc(-c2nnc(CSCCOc3ccccc3)s2)cc1
Second: c1ccc2sc(-c3nc(COc4ccc(CCCn5ccnc5)cc4)co3)cc2c1
The melting point of the first is lower: 127 to 128 °C for the first, 149 to 150 °C for the second.

First: COc1ccc(S(=O)(=O)N2C(=O)C(OC(=O)N3CCN(c4ccncc4)CC3)(c3ccccc3OC(C)C)c3cc(Cl)ccc32)c(OC)c1 (stereo unspecified)
Second: COc1ccc(CN2Cc3c(-c4noc(C5CC5)n4)ncn3-c3ccc(Cl)cc3C2=O)c(OC)c1
The melting point of the first is lower: 160 to 164 °C for the first, 198 to 205 °C for the second.

Compared with `COc1cc2ccccc2c(OC)c1C(=O)O`, `COc1ccc2ccccc2c1CONC(C)=O` is lower in melting point: 119 to 123 °C for the first, 112 °C for the second.

Compared with `O=C(O)C=C1c2ccccc2CCc2cc(Cl)ccc21`, `Nc1c(-c2ccc(-c3ccc(F)cc3F)cc2)nc2ccc(Cl)cc2c1C(=O)O` is higher in melting point: 155 to 175 °C for the first, 253 to 254 °C for the second.

First: COc1ccc(C=O)c(Oc2ccc(Cl)cc2[N+](=O)[O-])c1
Second: COC(=O)Cn1oc2cc(OC)ccc2c1=O
The melting point of the first is lower: 130 to 131 °C for the first, 185 to 188 °C for the second.

First: CCC(C)N(C)C(=O)c1nc(-c2ccccc2)c2ccccc2n1 (stereo unspecified)
Second: O=C(CCl)N1CC(c2ccccc2)c2ccccc21 (stereo unspecified)
The melting point of the first is higher: 128 °C for the first, 76 to 78 °C for the second.

First: O=[N+]([O-])c1cccc(-c2csc(NS(=O)(=O)Cc3ccccc3)n2)c1
Second: Cn1cncc1C(O)(c1ccc(Cl)cc1)c1ccc2c(c1)c(-c1nc(-c3ccccc3)cs1)cc(=O)n2C (stereo unspecified)
The melting point of the first is higher: 219 to 221 °C for the first, 200 °C for the second.

First: CC(=O)NCC1CC(c2ccc(-n3ccc(C=NO)c3)c(F)c2)=NO1 (single isomer, unassigned; (-))
Second: CC(=O)c1ccc(-c2ccc(O)c(F)c2)cc1
The melting point of the first is higher: 216 to 217 °C for the first, 155 to 158 °C for the second.

First: CC(C=O)=CC=CC(C)=CC=CC=C(C)C1OCC(C)(C)CO1
Second: CCCCN(CCCC)c1ccc(C=CC=CC=CC2=C(C#N)C(=C(C#N)C#N)OC2(C)C)c(OC)c1
The melting point of the first is lower: 140 °C for the first, 156 to 160 °C for the second.

First: CC1(C)CCC2=C(O1)c1ccccc1C1(OCC(CO)O1)C2=O (stereo unspecified)
Second: Cc1noc(NS(=O)(=O)c2ccccc2-c2ccc(-c3ncco3)cc2CN2OCC(C)(C)C2=O)c1C
The melting point of the first is lower: 44 to 46 °C for the first, 95 to 100 °C for the second.

First: CN1C(=O)CCC1c1cncc(Br)c1 (stereo unspecified)
Second: CC(C(=O)O)c1ccc(-n2cc(Br)cn2)cc1 (stereo unspecified)
The melting point of the first is lower: 85 to 87 °C for the first, 154 to 155 °C for the second.

First: O=C(Nc1ccc(C(=O)N2Cc3ccccc3Cc3ccccc32)cc1)c1ccc(F)cc1F
Second: CCCCN(C)CCc1ccc(Nc2ncc3c(n2)-c2ccccc2[C@H](c2ccc(F)cc2)C3)cc1
The melting point of the first is higher: 215 to 217 °C for the first, 164 to 166 °C for the second.

First: COc1ccc(OC)c2c1C(=O)C=C(SCCCCCCCCCCC(=O)O)C2=O
Second: COc1ccc(S(=O)(=O)N(CC(N)=O)c2cc(Cl)c(Cl)cc2Cc2ccccc2Cl)cc1OC
The melting point of the first is lower: 146 to 147 °C for the first, 163 °C for the second.

First: CCOc1cc2c3ccccc3c(C=O)cc2c2ccccc12
Second: CC1CC(=O)c2cc(OCc3ccc4ccccc4n3)cnc2C1 (stereo unspecified)
The melting point of the first is higher: 174 to 176 °C for the first, 141 to 144 °C for the second.

First: O=c1ccc2cn(C3OC(CO)C(O)C3O)c(=O)[nH]c-2n1 (stereo unspecified)
Second: CCc1ccc2c(c1)C=Cc1sc(C)nc1C2c1cn(Cc2cccc(C(=O)O)c2)c(=O)[nH]c1=O (stereo unspecified)
The melting point of the first is higher: 189 to 190 °C for the first, 159 to 161 °C for the second.

First: Cc1c(CCc2ccccc2)c(=O)oc2cc(OCc3nnn[nH]3)cc(OCc3nnn[nH]3)c12
Second: Cc1oc(CCOc2ccc(CC3SC(=N)NC3=O)cc2)nc1CC(C)C (stereo unspecified)
The melting point of the first is higher: 248 to 250 °C for the first, 167 to 168 °C for the second.

First: O=C(Nc1cc(C(F)(F)F)ccc1N1CCOCC1)c1ccncc1
Second: CNc1nc(SCc2ccc(OC)cc2)nc(N2CCOCC2)c1N
The melting point of the first is higher: 172 to 173 °C for the first, 79.5 to 84 °C for the second.

First: CC(O)c1ccc(N)c(S(N)(=O)=O)c1 (stereo unspecified)
Second: COc1cc2c(cc1O)c(-c1cc3cccnc3n1S(=O)(=O)c1ccc(C)cc1)cn2C
The melting point of the first is lower: 160 to 162 °C for the first, 211 to 214 °C for the second.

First: O=C(NC(C(=O)O)c1ccc[nH]1)OCC(Cl)(Cl)Cl (stereo unspecified)
Second: CCOC(=O)[C@@H]1[C@H](C)OC(=O)[C@@H]1NC(C)=O
The melting point of the first is lower: 111 °C for the first, 165 to 167 °C for the second.

In the case of `CCCCn1c(=O)c2c(ncn2S(=O)(=O)c2cccc([N+](=O)[O-])c2)n(CCCC)c1=O`, the melting point is reported as 178 to 179 °C.

— a melting point compilation (Tetko et al.; mined from patent text by program, amines drawn as free bases though some values may be those of a salt)
